Measured values reported in US20080280868A1, “Pyridine Derivatives and Their Use as Cb2 Receptor Modulators” (priority 2004, published 2008).
Structures can show the parent of a compound that is named as a salt. Where two headings read alike, the source gives them in different places.

Target: T1, human cannabinoid CB2 receptor (Homo sapiens, UniProt P34972)
T1 construct: expressed in transfected cells; host or cells: Saccharomyces cerevisiae strain MMY23 (cassette integrated at the ura3 locus, GPD promoter)
Assay: Cannabinoid CB2 receptor agonist activity in yeast cells (FDGlu fluorescence)
Format: cell-based
Conditions: for Emax: read-out: efficacy value (Emax) at the cloned human cannabinoid CB2 receptor
Procedure: The cannabinoid CB2 receptor agonist activity of the compounds of formula (I) was determined in accordance with the following experimental method.
Yeast (Saccharomyces cerevisiae) cells expressing the human cannabinoid CB2 receptor were generated by integration of an expression cassette into the ura3 chromosomal locus of yeast strain MMY23. This cassette consisted of DNA sequence encoding the human CB2 receptor flanked by the yeast GPD promoter to the 5′ end of CB2 and a yeast transcriptional terminator sequence to the 3′ end of CB2. MMY23 expresses a yeast/mammalian chimeric G-protein alpha subunit in which the C-terminal 5 amino acids of Gpal are replaced with the C-terminal 5 amino acids of human Gαi3 (as described in Brown et al. (2000), Yeast 16:11-22).
Agonists were prepared as 10 mM stocks in DMSO. […] Agonist solutions in DMSO (1% final assay volume) were transferred into black, clear bottom, microtitre plates from NUNC (96- or 384-well). Cells were suspended at a density of 0.2 OD600/ml in SC media lacking histidine, uracil, tryptophan, adenine and leucine and supplemented with 10 mM 3-aminotriazole, 0.1M sodium phosphate pH 7.0, and […] fluorescein di-β-D-glucopyranoside (FDGlu). […] After incubation at 30° C. for 24 hours, fluorescence resulting from degradation of FDGlu to fluorescein due to exoglucanase, an endogenous yeast enzyme produced during agonist-stimulated cell growth, was determined using a Spectrofluor microtitre plate reader (Tecan; excitation wavelength: 485 nm; emission wavelength: 535 nm). Fluorescence was plotted against compound concentration and iteratively curve fitted using a four parameter fit to generate a concentration effect value. Efficacy (Emax) was calculated from the equation
Equieffective molar ratio (EMR) values were calculated from the equation

[1] = yeast (Saccharomyces cerevisiae) expressing human CB2, agonist, 30° C. for 24 hours, read-out: EC50 at the cloned human cannabinoid CB2 receptor
[2] = Emax relative to HU210, yeast expressing human CB2

T1 sequence (P34972 whole entry): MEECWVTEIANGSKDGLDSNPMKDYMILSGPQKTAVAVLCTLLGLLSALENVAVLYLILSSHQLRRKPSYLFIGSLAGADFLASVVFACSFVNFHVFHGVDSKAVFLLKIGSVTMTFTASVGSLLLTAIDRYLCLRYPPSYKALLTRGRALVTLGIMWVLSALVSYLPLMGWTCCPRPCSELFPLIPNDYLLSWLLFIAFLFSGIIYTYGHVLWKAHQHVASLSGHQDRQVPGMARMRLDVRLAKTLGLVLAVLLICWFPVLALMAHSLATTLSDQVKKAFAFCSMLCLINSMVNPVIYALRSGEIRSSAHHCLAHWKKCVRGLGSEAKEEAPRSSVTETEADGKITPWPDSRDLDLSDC

| EC50 [1] [nM] | Emax [2] [%] | SMILES | EC50 [nM] | Emax [%] |
| --- | --- | --- | --- | --- |
|  |  | Cc1cccc(Nc2cc(C(C)C)c(CNCC3CCC3)cn2)c1 [Example 12, {5-[(Cyclobutylmethyl-amino)methyl]-4-isopropyl-pyridin-2-yl}-m-tolyl-amine] | 300 to 1000 | > 50 |
|  |  | Cc1ccc(Nc2cc(C(C)C)c(CNCC3CC3)cn2)cc1Cl [Example 33, (3-Chloro-4-methyl-phenyl)-{5-[(cyclopropylmethyl-amino)-methyl]-4-isopropyl-pyridin-2-yl}-amine, compound with formic acid(1:1)] | 300 to 1000 | > 50 |
| < 300 | > 50 | CC(C)CNCc1cnc(Nc2cccc(C(F)(F)F)c2)cc1C(C)C [Example 51, [5-(Isobutylamino-methyl)-4-isopropyl-pyridin-2-yl]-(3-trifluoromethyl-phenyl)-amine,compound with formic acid (1:1,25)] |  |  |
|  |  | CC(C)c1cc(Nc2cccc(Cl)c2)ncc1CNCC1CC1 [Example 22, (3-Chloro-phenyl)-{5-[(cyclopropylmethyl-amino)-methyl]-4-isopropyl-pyridin-2-yl}-amine, compound with formic acid(1:1.25)] | < 300 | > 50 |
|  |  | CC(C)c1cc(Nc2cccc(Cl)c2)ncc1CN1CCCC1 [Example 58, (3-Chloro-phenyl)-(4-isopropyl-5-pyrrolidin-1-ylmethyl-pyridin-2-yl)-amine. dihydrochloride] | < 300 | > 50 |
| < 300 | > 50 | CC(C)c1cc(N(C)c2cccc(Br)c2)ncc1CNCC1CCOCC1 [Example 49, (3-Bromo-phenyl)-(4-isopropyl-5-{[(tetrahydro-pyran-4-ylmethyl)-amino]-methyl}-pyridin-2-yl)-methyl-amine, compound withformic acid (1:1)] |  |  |
|  |  | Clc1cccc(Nc2cc(C3CC3)c(CNCC3CC3)cn2)c1 [Example 3, (3-Chlorophenyl)-(4-cyclopropyl-5-[(cyclopropylmethyl-amino)-methyl]-pyridin-2-yl}-amine acetate] | < 300 | > 50 |
| < 300 | > 50 | Clc1cccc(Nc2cc(C3CC3)c(CNC3CC3)cn2)c1 [Example 2, (3-Chlorophenyl)-(4-cyclopropyl-5-cyclopropylaminomethyl-pyridin-2-yl)-amineacetate] |  |  |
| 300 to 1000 | > 50 | Cc1c(Cl)cccc1Nc1cc(C2CC2)c(CNCC2CCC2)cn1 [Example 29, (3-Chloro-2-methyl-phenyl)-{5-[(cyclobutylmethyl-amino)-methyl]-4-cyclopropyl-pyridin-2-yl}-amine,compound with formic acid (1:1.57)] |  |  |
|  |  | CC(C)c1cc(Nc2cccc(Cl)c2)ncc1CN1CCC(F)(F)CC1 [Example 57, (3-Chloro-phenyl)-[5-(4,4-difluoro-piperidin-1-ylmethyl)-4-isopropylpyridin-2-yl]-amine dihydrochloride] | < 300 | > 50 |
| < 300 | > 50 | CC(C)c1cc(Nc2ccc(F)c(Cl)c2)ncc1CNCC1CCC1 [Example 18, (3-Chloro-4-fluoro-phenyl)-{5-[(cyclobutyhnethyl-amino)-methyl]-4-isopropyl-pyridin-2-yl}-amine,compound with formic acid (1:1.3)] |  |  |
|  |  | CC(C)c1cc(Nc2ccc(Cl)cc2Cl)ncc1CN1CCSCC1 [Example 61, (2,4-Dichloro-phenyl)-(4-isopropyl-5thiomorpholin-4-ylmethyl-pyridin-2-yl)-amine dihydrochloride] | < 300 | > 50 |
|  |  | Clc1cccc(Nc2cc(C3CC3)c(CN3CCOCC3)cn2)c1 [Example 4, (3-Chlorophenyl)-(4-cyclopropyl-5-morpholin-4-ylmethyl-pyridin-2-yl)-aminedihydrochloride] | < 300 | > 50 |
| < 300 | > 50 | CC(C)c1cc(Nc2cc(F)cc(F)c2)ncc1CNCC1CCC1 [Example 21, {5-[(Cyclobutylmethyl-amino)-methyl]-4-isopropyl-pyridin-2-yl}-(3,5-difluoro-phenyl)-amine,compound with formic acid (1:1.3)] |  |  |
|  |  | Clc1cccc(Nc2cc(C3CC3)c(CNCC3CCCC3)cn2)c1 [Example 62, (3-Chloro-phenyl)-{5-[(cyclopentylmethyl-amino)-methyl]-4-cyclopropyl-pyridin-2-yl}-amine di-Hydrochloride] | < 300 | > 50 |
| < 300 | > 50 | CC(C)CNCc1cnc(Nc2cccc(C(F)(F)F)c2F)cc1C(C)C [Example 46, (2-Fluoro-3-trifluoromethyl-phenyl)-5-[(isobutylamino-methyl)-4-isopropyl-pyridin-2-yl]-amine,compound with formic acid (1:1.13)] |  |  |
|  |  | CC(C)c1cc(Nc2cccc(Cl)c2)ncc1CNC(C)(C)C [Example 65, [5-(tert-Butylamino-methyl)isopropyl-pyridin-2-yl]-(3-chloro-phenyl)amine dihydrochloride] | 300 to 1000 | > 50 |
|  |  | CC(C)c1cc(Nc2cccc(Cl)c2)ncc1CNCC1CCCC1 [Example 50, (3-Chloro-phenyl)-{5-[(cyclopentylmethyl-amino)-methyl]-4-isopropyl-pyridin-2-yl}-amine, compound with formic acid(1:1)] | < 300 | > 50 |
|  |  | Clc1cccc(Nc2cc(C3CC3)c(CNCC3CCC3)cn2)c1 [Example 13, (3-Chloro-phenyl)-{5-[(cyclobutylmethyl-amino)-methyl]-4-cyclopropyl-pyridin-2-yl}-amine] | < 300 | > 50 |
|  |  | O=S1(=O)CCC(NCc2cnc(Nc3cccc(Cl)c3)cc2C2CC2)CC1 [Example 63, (3-Chloro-phenyl)-{4-cyclopropyl-5-[(1,1-dioxo-hexahydro-1l^6-thiopyran-4-ylamino)-methyl]-pyridin-2-yl}-amine di-hydrochloride] | < 300 | > 50 |
|  |  | CCCNCc1cnc(Nc2cccc(Cl)c2)cc1C1CC1 [Example 55, (3-Chloro-phenyl)-(4-cyclopropyl-5-propylaminomethyl-pyridin-2-yl) amine dihydrochloride] | < 300 | > 50 |
|  |  | CC(C)c1cc(Nc2ccc(Cl)c(Cl)c2)ncc1CNCC1CCC1 [Example 17, {5-[(Cyclobutylmethyl-amino)-methyl]-4-isopropyl-pyridin-2-yl}-(3,4-dichloro-phenyl)-amine,compound with formic acid (1:1.2)] | < 300 | > 50 |
|  |  | Cc1cc(Cl)ccc1Nc1cc(C(C)C)c(CNCC2CCC2)cn1 [Example 27, (4-Chloro-2-methyl-phenyl)-{5-[(cyclobutylmethyl-amino)-methyl)-4-isopropyl-pyridin-2-yl}-amine,compound with formic acid (1:1.33)] | 300 to 1000 | > 50 |
|  |  | CC(C)c1cc(Nc2cc(Cl)ccc2Cl)ncc1CNCC1CCC1 [Example 20, {5-[(Cyclobutylmethyl-amino)-methyl]-4-isopropyl-pyridin-2-yl}-(2,5-dichloro-phenyl)-amine,compound with formic acid (1:1)] | < 300 | > 50 |
| < 300 | > 50 | Clc1cccc(Nc2cc(C3CC3)c(CNC3CCC3)cn2)c1 [Example 1, (3-Chlorophenyl)-5-(cyclobutylaminomethyW cyclopropyl-pyridin-2-yl)-amine acetate] |  |  |
|  |  | CC(C)CNCc1cnc(Nc2ccc(Cl)cc2Cl)cc1C(C)C [Example 23, (2,4-Dichloro-phenyl)-[5-(isobutylamino-methyl)-4-isopropyl-pyridin-2-yl]-amine, compound withformic acid (1:1)] | < 300 | > 50 |
|  |  | CC(C)c1cc(Nc2ccc(F)c(F)c2)ncc1CNCC1CC1 [Example 37, {5-[(Cyclopropylmethyl-amino)-methyl]-4-isopropyl-pyridin-2-yl}-(3,4-difluoro-phenyl)-amine,compound with formic acid (1:1.15)] | 300 to 1000 | > 50 |

| SMILES | EC50 [1] [nM] | Emax [2] [%] | EC50 [nM] | Emax [%] |
| --- | --- | --- | --- | --- |
| CC(C)c1cc(Nc2cc(F)cc(F)c2)ncc1CNCC1CC1 [Example 31, {5-[(Cyclopropylmethyl-amino)-methyl]-4-isopropyl-pyridin-2-yl}-(3,5-difluoro-phenyl)-amine,compound with formic acid (1:1)] | 300 to 1000 |  |  | > 50 |
| Clc1cccc(Nc2cc(C3CC3)c(CNC3CCOCC3)cn2)c1 [Example 11, (3-Chlorophenyl)-{4-cyclopropyl-5-[(tetrahydro-pyran-4-ylamino)-methyl]-pyridin-2-yl}-amineacetate] | 300 to 1000 |  |  | > 50 |
